The values below come from patent publication US9051310B2, “Nicotinamide derivative or salt thereof” (FUJIFILM Corporation, priority 2011, dated 2015).

Test [1] has as its target T1, glutathione S-transferase (GST)-linked full-length human Syk protein (Homo sapiens, UniProt P43405).
T1 construct: glutathione S-transferase (GST)-linked full-length human Syk protein; purchased Carna Biosciences; host or cells: Baculovirus expression system
In words: Syk enzyme assay. In kind it is biochemical. To be noted: 0.83 nM Syk, time-resolved fluorescence; read-out: IC50 of Syk-inhibitory activity. A digest of the protocol:
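Phosphotyrosine on a biotin-peptide substrate (0.5 μM) was read by time-resolved fluorescence at 615 and 665 nm with Eu-anti-pTyr antibody and APC-streptavidin after 1 h EDTA stop.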

The test system of test [2] is THP-1 cells (TNFα secretion on human IgG-coated plate). The experiment in a line: TNFα generation assay. In kind it is cell-based. The following applies: IFN-γ differentiated THP-1 cells, 7 hours, AlphaLISA, read-out: IC50 of TNFα generation inhibitory activity. The method, boiled down:
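THP-1 cells were differentiated with 10 ng/ml IFN-γ for 2 days, then preincubated with compound for 30 min at room temperature. They were then plated at 5×10^4 cells/well on plates coated with human IgG (10 μg/ml). TNFα secreted over 7 h of culture was quantified by AlphaLISA.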
For orientation: Alpha assays give light when donor and acceptor beads are brought close together.

On to `C[C@H](N)[C@H](Nc1nc(Nc2cncc(-n3cccn3)c2)c(C(N)=O)cc1F)C1CCC1` [Example 2-24, 2-((5-(1H-pyrazol-1-yl)pyridin-3-yl)amino)-6-(((1R,2S)-2-amino-1-cyclobutylpropyl)amino)-5-fluoronicotinamide], for which the IC50 is under 10 nM in test [1] and 130 to 200 nM in test [2].
The corresponding values for `CCC[C@@H](Nc1nc(Nc2ccc3c(c2)c(C)nn3CCOC)c(C(N)=O)cc1F)[C@H](C)N` [Example 2-132, 6-(((2S,3R)-2-aminohexan-3-yl)amino)-5-fluoro-2-((1-(2-methoxyethyl)-3-methyl-1H-indazol-5-yl)amino)nicotinamide] are under 10 nM and 130 to 200 nM.
As for `CCC[C@@H](Nc1nc(Nc2cc(F)c3c(c2)c(N(C)C)nn3C)c(C(N)=O)cc1F)[C@H](C)N` [Example 2-187, 6-(((2S,3R)-2-aminohexan-3-yl)amino)-2-((3-(dimethylamino)-7-fluoro-1-methyl-1H-indazol-5-yl)amino)-5-fluoronicotinamide], the results for the IC50 in test [1] and in test [2] were under 10 nM and 65 to 130 nM, respectively.
The corresponding values for `Cc1nn(C)c2ncc(Nc3nc(N[C@@H]4CCCC[C@@H]4N)c(F)cc3C(N)=O)cc12` [Example 2-239, 6-(((1R,2S)-2-aminocyclohexyl)amino)-2-((1,3-dimethyl-1H-pyrazolo[3,4-b]pyridin-5-yl)amino)-5-fluoronicotinamide] are 10 to 50 nM and 130 to 200 nM.
For `C[C@H](N)[C@H](Nc1nc(Nc2cccc3ncccc23)c(C(N)=O)cc1F)C1CC1` [Example 2-404, 6-(((1R,2S)-2-amino-1-cyclopropylpropyl)amino)-5-fluoro-2-(quinolin-5-ylamino)nicotinamide], in that order: under 10 nM and 65 to 130 nM.
The corresponding values for `NC(=O)c1cc(F)c(N[C@@H]2CCCC[C@@H]2N)nc1Nc1cccc(Cl)c1` [Example 2-439, 6-(((1R,2S)-2-aminocyclohexyl)amino)-2-((3-chlorophenyl)amino)-5-fluoronicotinamide] are under 10 nM and 65 to 130 nM.
Consider `CC[C@@H](Nc1nc(Nc2cc(F)c3c(c2)c(OC)nn3C)c(C(N)=O)cc1F)[C@H](C)N` [Example 2-152, 6-(((2S,3R)-2-aminopentan-3-yl)amino)-5-fluoro-2-((7-fluoro-3-methoxy-1-methyl-1H-indazol-5-yl)amino)nicotinamide], for which the IC50 in test [1] is under 10 nM; in test [2], 130 to 200 nM.
The corresponding values for `CC[C@@H](Nc1nc(Nc2ccc(C)c(C)c2)c(C(N)=O)cc1F)[C@H](C)N` [Example 2-477, 6-(((2S,3R)-2-aminopentan-3-yl)amino)-2-((3,4-dimethylphenyl)amino)-5-fluoronicotinamide] are under 10 nM and 130 to 200 nM.
Turning to `COC[C@@H](Nc1nc(Nc2ccc3c(c2)c(C)nn3CC(F)F)c(C(N)=O)cc1F)[C@H](C)N` [Example 2-139, 6-(((2S,3S)-3-amino-1-methoxybutan-2-yl)amino)-2-((1-(2,2-difluoroethyl)-3-methyl-1H-indazol-5-yl)amino)-5-fluoronicotinamide], the IC50 in test [1] is under 10 nM; in test [2], 65 to 130 nM.
For `CC[C@@H](Nc1nc(Nc2cncc(-n3cc(C)cn3)c2)c(C(N)=O)cc1F)[C@H](C)N` [Example 2-521, 6-(((2S,3R)-2-aminopentan-3-yl)amino)-5-fluoro-2-((5-(4-methyl-1H-pyrazol-1-yl)pyridin-3-yl)amino)nicotinamide], in that order: 10 to 50 nM and 65 to 130 nM.
The corresponding values for `CC(=O)c1cccc(Nc2nc(N[C@@H]3CCCC[C@@H]3N)c(F)cc2C(N)=O)c1` [Example 2-442, 2-((3-acetylphenyl)amino)-6-(((1R,2S)-2-aminocyclohexyl)amino)-5-fluoronicotinamide] are under 10 nM and 65 to 130 nM.
On to `COc1cc(Nc2nc(N[C@H](C)[C@@H](N)C3CC3)c(F)cc2C(N)=O)cc(OC)c1` [Example 2-229, 6-(((1S,2R)-1-amino-1-cyclopropylpropan-2-yl)amino)-2-((3,5-dimethoxyphenyl)amino)-5-fluoronicotinamide], for which the IC50 in test [1] is 10 to 50 nM; in test [2] it was 130 to 200 nM.
For `CC[C@H](N)[C@@H](C)Nc1nc(Nc2ccnc(OCCOC)c2)c(C(N)=O)cc1F` [Example 2-42, 6(((2R,3S)-3-aminopentan-2-yl)amino)-5-2-((2-(2-methoxyethoxy)pyridin-4-yl)amino)nicotinamide], in that order: 10 to 50 nM and 65 to 130 nM.
For `CCC[C@@H](Nc1nc(Nc2cnc3c(c2)c(C)nn3C)c(C(N)=O)cc1F)[C@H](C)N` [Example 2-242, 6-(((2S,3R)-2-aminohexan-3-yl)amino)-2-((1,3-dimethyl-1H-pyrazolo[3,4-b]pyridin-5-yl)amino)-5-fluoronicotinamide], in that order: 10 to 50 nM and 130 to 200 nM.
For `COc1nn(CC(F)F)c2ccc(Nc3nc(N[C@H](CC(C)C)[C@H](C)N)c(F)cc3C(N)=O)cc12` [Example 2-54, 6-(((2S,3R)-2-amino-5-methylhexan-3-yl)amino)-2-((1-(2,2-difluoroethyl)-3-methoxy-1H-indazol-5-yl)amino)-5-fluoronicotinamide], in that order: under 10 nM and 130 to 200 nM.
Turning to `COc1nn(C)c2ncc(Nc3nc(N[C@H](CC(C)C)[C@H](C)N)c(F)cc3C(N)=O)cc12` [Example 2-255, 6-(((2S,3R)-2-amino-5-methylhexan-3-yl)amino)-5-fluoro-2-((3-methoxy-1-methyl-1H-pyrazolo[3,4-b]pyridin-5-yl)amino)nicotinamide], the IC50 in test [1] is under 10 nM; in test [2], 130 to 200 nM.
For `COc1nn(C)c2c(F)cc(Nc3nc(N[C@@H](CN)CC(C)C)c(F)cc3C(N)=O)cc12` [Example 2-151, (R)-6-((1-amino-4-methylpentan-2-yl)amino)-5-fluoro-2-((7-fluoro-3-methoxy-1-methyl-1H-indazol-5-yl)amino)nicotinamide], in that order: under 10 nM and 130 to 200 nM.
`CCn1ncc2cc(Nc3nc(N[C@H](C)[C@@H](N)C4CC4)c(F)cc3C(N)=O)ccc21` [Example 2-230, 6-(((1S,2R)-1-amino-1-cyclopropylpropan-2-yl)amino)-2-((1-ethyl-1H-indazol-1-5-yl)amino)-5-fluoronicotinamide]: the IC50 in test [1] lay within 10 to 50 nM; in test [2] it was 65 to 130 nM.
For `CC[C@@H](Nc1nc(Nc2ccc3onc(OC)c3c2)c(C(N)=O)cc1F)[C@H](C)N` [Example 2-57, 6-(((2S,3R)-2-aminopentan-3-yl)amino)-5-fluoro-2-((3-methoxybenzo[d]isoxazol-5-yl)amino)nicotinamide], in that order: under 10 nM and 65 to 130 nM.
With `CC[C@@H](Nc1nc(Nc2ccc3c(c2)c(C)nn3CCOC)c(C(N)=O)cc1F)[C@H](C)N` [Example 2-131, 6-(((2S,3R)-2-aminopentan-3-yl)amino)-5-fluoro-2-((1-(2-methoxyethyl)-3-methyl-1H-indazol-5-yl)amino)nicotinamide], the IC50 in test [1] is under 10 nM; in test [2] it was 65 to 130 nM.
For `Cn1nc(N2CCCC2)c2cc(Nc3nc(N[C@@H]4CCCC[C@@H]4N)c(F)cc3C(N)=O)ccc21` [Example 2-428, 6-(((1R,2S)-2-aminocyclohexyl)amino)-5-fluoro-2-((1-methyl-3-(pyrrolidin-1-1)-1H-indazol-5-yl)amino)nicotinamide], in that order: 10 to 50 nM and 130 to 200 nM.
The corresponding values for `COCCn1ncc2cc(Nc3nc(N[C@H](c4cccc(F)c4)[C@H](C)N)c(F)cc3C(N)=O)ccc21` [Example 2-454, 6-(((1R,2S)-2-amino-1-(3-fluorophenyl)propyl)amino)-5-fluoro-2-((1-(2-methoxyethyl)-1H-indazol-5-yl)amino)nicotinamide] are under 10 nM and 65 to 130 nM.
Take `Cc1nn(C)c2ncc(Nc3nc(N[C@H](C4CC4)[C@H](C)N)c(F)cc3C(N)=O)cc12` [Example 2-243, 6-(((1R,2S)-2-amino-1-cyclopropylpropyl)amino)-2-((1,3-dimethyl-1H-pyrazolo[3,4-b]pyridin-5-yl)amino)-5-fluoronicotinamide]: the IC50 was 10 to 50 nM in test [1] and 130 to 200 nM in test [2].
The corresponding values for `COc1nn(C)c2ncc(Nc3nc(N[C@H](C4CC4)[C@H](C)N)c(F)cc3C(N)=O)cc12` [Example 2-253, 6-(((1R,2S)-2-amino-1-cyclopropylpropyl)amino)-5-fluoro-2-((3-methoxy-1-methyl-1H-pyrazolo[3,4-b]pyridin-5-yl)amino)nicotinamide] are under 10 nM and 65 to 130 nM.
Take `Cn1nc(F)c2cc(Nc3nc(N[C@@H]4CCOC[C@@H]4N)c(F)cc3C(N)=O)ccc21` [Example 2-209, 6-(((3R,4R)-3-aminotetrahydro-2H-pyran-4-yl)amino)-5-fluoro-2-((3-fluoro-1-methyl-1H-indazol-5-yl)amino)nicotinamide]: the IC50 was under 10 nM in test [1] and 65 to 130 nM in test [2].
Consider `COCCn1nc(OC)c2cc(Nc3nc(N[C@@H]4CCOC[C@@H]4N)c(F)cc3C(N)=O)ccc21` [Example 2-329, 6-(((3R,4R)-3-aminotetrahydro-2H-pyran-4-yl)amino)-5-fluoro-2-((3-methoxy-1-(2-methoxyethyl)-1H-indazol-5-yl)amino)nicotinamide], for which the IC50 is under 10 nM in test [1] and 65 to 130 nM in test [2].
